Columns and labels:
[1] = test system: HL-60; assay: Cytotoxicity against human HL60 cells after 72 hrs by MTT assay; assay type: functional, cell-based; settings: HL-60, 72 h
[2] = test system: A549; assay: Cytotoxicity against human A549 cells after 72 hrs by MTT assay; assay type: functional, cell-based; settings: A549, 72 h
[3] = target: Tubulin (Sus scrofa, UniProt P02554+P02550); assay: Inhibition of porcine brain tubulin polymerization by microtubule assembly assay
[4] = test system: HCT-116; assay: Cytotoxicity against human HCT116 cells after 72 hrs by MTT assay; assay type: functional, cell-based; settings: HCT-116, 72 h
[5] = test system: MCF7; assay: Cytotoxicity against human MCF7 cells after 72 hrs by MTT assay; assay type: functional, cell-based; settings: MCF7, 72 h

Structure (SMILES) | IC50 [1] [nM] | IC50 [2] [nM] | IC50 [3] [nM] | IC50 [4] [nM] | IC50 [5] [nM]
CC[C@H](C)[C@H](NC(=O)[C@H]1CCCCN1C)C(=O)N(COC(=O)CC(C)C)[C@H](C[C@@H](OC(C)=O)c1nc(C(=O)N[C@@H](Cc2ccccc2)C[C@H](C)C(=O)O)cs1)C(C)C [TUBULYSIN D] | 0.0047 | 0.013 | 1700 | 0.0031 | 0.67
CC[C@H](C)[C@H](NC(=O)[C@H]1CCCCN1C)C(=O)N[C@H](C[C@H](OC(C)=O)c1nc(C(=O)N[C@@H](Cc2ccccc2)C[C@H](C)C(=O)O)cs1)C(C)C [11-EPI-TUBULYSIN D] | 3.1 | 43 | 1400 | 13 | 280
CC[C@]1(O)C[C@@H]2CN(CCc3c([nH]c4ccccc34)[C@@](C(=O)OC)(c3cc4c(cc3OC)N(C)[C@H]3[C@@](O)(C(=O)OC)[C@H](OC(C)=O)[C@]5(CC)C=CCN6CC[C@]43[C@@H]65)C2)C1 [VINBLASTINE] | 1 | 17 | – | 27 | 0.79
CC[C@H](C)[C@H](NC(=O)[C@H]1CCCCN1C)C(=O)N[C@@H](C[C@@H](OC(C)=O)c1nc(C(=O)N[C@@H](Cc2ccccc2)C[C@H](C)C(=O)O)cs1)C(C)C [13-EPI-TUBULYSIN D] | 98 | 1200 | 1700 | 920 | 240
CC[C@H](C)[C@H](NC(=O)[C@H]1CCCCN1C)C(=O)N[C@@H](C[C@H](OC(C)=O)c1nc(C(=O)N[C@@H](Cc2ccccc2)C[C@H](C)C(=O)O)cs1)C(C)C | 3600 | > 10000 | 6300 | > 10000 | > 10000

— ChEMBL document CHEMBL1641518, “Synthesis and biological evaluation of tubulysin D analogs related to stereoisomers of tubuvaline” (Bioorg Med Chem Lett, 2011)
